Measurements: ChEMBL document CHEMBL1201862, “PubChem BioAssay data set” (2004)
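1) Cells in 96-well plates. 2) Compound, 48 h, 5 concentrations. 3) Linear interpolation between surrounding doses. 4) Unreached endpoint = highest concentration. The concentration for 50% growth inhibition is given as GI50.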 The source made the active and inactive calls. Rule as the data show it: active = GI50 up to about 1.1 µM and inactive = higher.

What was measured:
Assay in all cases: DTP human tumour cell line panel, 48 h
[1] = test system: SNB-75
[2] = test system: ACHN
[3] = test system: DU-145
[4] = test system: SF-268
[5] = test system: SW-620
[6] = test system: SK-MEL-28
[7] = test system: 786-0
[8] = test system: CCRF-CEM
[9] = test system: MOLT-4
[10] = test system: M14
[11] = test system: NCI-H460
[12] = test system: SNB-19
[13] = test system: KM12
[14] = test system: Malme-3M
[15] = test system: HCT-116
[16] = test system: UO-31
[17] = test system: OVCAR-8
[18] = test system: PC-3
[19] = test system: CAKI-1
[20] = test system: A498

Measured: GI50

CC1(C)C2CC(O)C1(C)CC2=O (stereo unspecified)
inactive: [1] > 100 µM | [2] > 100 µM | [3] > 100 µM | [4] > 100 µM | [5] > 100 µM | [6] 3.21 µM | [7] > 100 µM | [8] > 100 µM | [9] > 100 µM | [10] > 100 µM | [11] > 100 µM | [12] > 100 µM | [13] > 100 µM | [14] > 100 µM | [15] > 100 µM | [16] > 100 µM | [17] > 100 µM | [18] > 100 µM

Cc1ccc(C(=O)N(C2CCCCC2)C2CCCCC2)cc1/N=N/N(C)C
inactive: [2] 8.83 µM | [3] > 10 µM | [4] 10.8 µM | [5] 8.83 µM | [6] 7.14 µM | [7] 15.3 µM | [8] 14.9 µM | [9] 14.4 µM | [10] 17.6 µM | [11] 15.1 µM | [12] 12.6 µM | [13] 6.71 µM | [14] 16.2 µM | [15] 5.51 µM | [16] 12.8 µM | [17] 8.81 µM | [18] 10.4 µM | [19] 12.9 µM

C/C(=N\Nc1ccc([N+](=O)[O-])cc1[N+](=O)[O-])c1sc(-n2nc(-c3ccccc3)cc2-c2ccccc2)nc1C
inactive: [1] 45.5 µM | [2] 16.6 µM | [3] 35.5 µM | [4] 44.2 µM | [5] 26.3 µM | [6] 90.2 µM | [7] 36.7 µM | [8] 19.5 µM | [9] 16.9 µM | [10] 56.4 µM | [11] 30.8 µM | [12] 93.5 µM | [13] 11.3 µM | [14] 76.7 µM | [15] 29.4 µM | [20] 41 µM | [16] 19.8 µM | [17] 30.5 µM | [19] 20 µM

CCOC(=O)/C(=C\c1c(C)[nH]c2ccccc12)P(=O)(OCC)OCC
inactive: [1] > 100 µM | [2] > 100 µM | [3] > 100 µM | [4] > 100 µM | [5] > 100 µM | [6] > 100 µM | [7] > 100 µM | [9] > 100 µM | [10] > 100 µM | [11] > 100 µM | [12] > 100 µM | [13] > 100 µM | [14] > 100 µM | [15] > 100 µM | [20] > 100 µM | [17] > 100 µM | [19] > 100 µM

COC(=O)c1ccccc1C1=C([N+](=O)[O-])C(c2ccccc2)C(C#N)=C(N)O1 (stereo unspecified)
inactive: [1] 96.2 µM | [2] 54.7 µM | [3] 72.1 µM | [4] 31.8 µM | [5] 35.9 µM | [6] > 100 µM | [7] 35.6 µM | [8] 30.1 µM | [9] 35 µM | [10] > 100 µM | [11] > 100 µM | [12] > 100 µM | [13] 56 µM | [15] > 100 µM | [17] 32.1 µM | [18] > 100 µM

N#Cc1ccc2[nH]c3c(c2c1)CC(=O)Nc1ccccc1-3 [PAULLONE 2]
inactive: [1] > 100 µM | [2] > 100 µM | [4] > 100 µM | [5] > 100 µM | [6] > 100 µM | [7] > 100 µM | [8] > 100 µM | [9] > 100 µM | [10] > 100 µM | [11] > 100 µM | [12] > 100 µM | [15] 21.5 µM | [20] > 100 µM | [16] > 100 µM | [17] > 100 µM | [18] > 100 µM | [19] > 100 µM

O=C(c1cccc2cc(O)ccc12)c1cn(CCN2CCOCC2)c2ccccc12
inactive: [2] 33.7 µM | [3] 30.1 µM | [4] 24 µM | [5] 22.4 µM | [6] 42.6 µM | [7] 21.1 µM | [8] 4.06 µM | [9] 34.7 µM | [10] 20 µM | [12] 55.7 µM | [14] 22.8 µM | [15] 20 µM | [16] 24.1 µM | [17] 31.6 µM | [18] 12 µM | [19] 39.4 µM

Cc1c(CN)c(C)c(CN)c(C)c1CN
inactive: [1] > 100 µM | [2] > 100 µM | [3] > 100 µM | [4] > 100 µM | [5] > 100 µM | [6] > 100 µM | [7] > 100 µM | [8] > 100 µM | [9] > 100 µM | [10] > 100 µM | [11] > 100 µM | [12] > 100 µM | [13] > 100 µM | [14] > 100 µM | [15] > 100 µM | [17] > 100 µM | [18] > 100 µM | [19] > 100 µM

CCc1n[nH]c(=O)n1/N=C/c1ccc(C)cc1
inactive: [2] > 100 µM | [3] 65.2 µM | [4] 66.5 µM | [5] > 100 µM | [6] > 100 µM | [7] > 100 µM | [8] > 100 µM | [9] 5.2 µM | [11] > 100 µM | [12] > 100 µM | [13] 69.3 µM | [14] > 100 µM | [15] 97.9 µM | [20] 79.6 µM | [16] 64.9 µM | [17] > 100 µM | [19] > 100 µM

Cc1csc(N/C=C2\C(=O)Oc3ccccc3C2=O)n1
inactive: [1] 10.4 µM | [2] 9.02 µM | [3] 29 µM | [4] 26.5 µM | [5] 33.2 µM | [7] 34.8 µM | [8] 35.8 µM | [9] 41 µM | [10] 35.8 µM | [12] 33.7 µM | [13] 40 µM | [14] 20.5 µM | [15] 28.4 µM | [16] 11.7 µM | [17] 32 µM | [18] 30.2 µM | [19] 19.8 µM

COc1cccc(CC2C(=O)N/C(=N\C(C)=O)N2C)c1OC(C)=O (stereo unspecified)
inactive: [1] > 100 µM | [2] > 100 µM | [3] > 100 µM | [4] > 100 µM | [5] > 100 µM | [6] 39 µM | [7] > 100 µM | [8] > 100 µM | [9] > 100 µM | [10] > 100 µM | [11] > 100 µM | [12] > 100 µM | [13] > 100 µM | [15] > 100 µM | [16] > 100 µM | [17] > 100 µM | [18] > 100 µM | [19] > 100 µM

c1ccc(-c2cc(-c3ccncc3)cc(-c3ccncc3)n2)cc1
inactive: [1] 29 µM | [2] > 100 µM | [3] > 100 µM | [4] 45.6 µM | [5] > 100 µM | [6] > 100 µM | [7] 69.3 µM | [8] > 100 µM | [9] > 100 µM | [10] > 100 µM | [12] 45.2 µM | [13] > 100 µM | [14] > 100 µM | [15] > 100 µM | [16] > 100 µM | [17] > 100 µM | [18] > 100 µM | [19] > 100 µM

COC(=O)CNC(=O)C(CSC(=O)OCC1c2ccccc2-c2ccccc21)NC(=O)CCC(NC(=O)OCC1c2ccccc2-c2ccccc21)C(=O)OC (stereo unspecified)
inactive: [2] 55.1 µM | [3] > 100 µM | [4] 21.3 µM | [5] 55.2 µM | [6] 38.1 µM | [7] 13.7 µM | [8] 14 µM | [9] 21.2 µM | [10] 24 µM | [11] 24.4 µM | [12] 23.8 µM | [14] 25.7 µM | [15] 17.5 µM | [16] 18.7 µM | [17] 16.8 µM | [18] 30.8 µM | [19] 7.5 µM

CCCCCCCCCN1CCC(=O)C(C(=O)OC)C1 (stereo unspecified)
inactive: [1] 17.9 µM | [2] 8.93 µM | [3] 15.1 µM | [4] 16.3 µM | [5] 11.9 µM | [7] 16.9 µM | [8] 10.1 µM | [9] 13.6 µM | [10] 15.4 µM | [11] 17.6 µM | [13] 3.08 µM | [15] 13.9 µM | [20] 19 µM | [16] 10.3 µM | [17] 8.07 µM | [19] 15.6 µM

N=CCCN(CCC=N)c1ccc(/C=C2\CN(NC(=O)c3ccc(Cl)cc3)C(c3ccccc3)=N2)cc1
inactive: [1] > 100 µM | [2] > 100 µM | [4] > 100 µM | [5] 15.6 µM | [6] > 100 µM | [7] 90.2 µM | [8] > 100 µM | [9] > 100 µM | [10] > 100 µM | [11] > 100 µM | [12] > 100 µM | [13] > 100 µM | [14] > 100 µM | [15] > 100 µM | [20] > 100 µM | [16] > 100 µM | [17] > 100 µM | [19] > 100 µM

O=C(NCCN1CCOCC1)c1ccc(I)cc1
inactive: [1] > 100 µM | [2] > 100 µM | [4] > 100 µM | [5] > 100 µM | [6] > 100 µM | [7] > 100 µM | [8] > 100 µM | [9] > 100 µM | [10] > 100 µM | [11] > 100 µM | [12] > 100 µM | [20] > 100 µM | [16] > 100 µM | [17] > 100 µM | [18] > 100 µM | [19] > 100 µM
